Reference: patent US12673022B2, “Drug delivery system using solution” (Kyoto University, priority 2018, dated 2026)

Key:
[1] = test system: EGFP reporter cells (C2C12 cells); assay: EGFP-SSA assay: uptake of Cas9 protein/gRNA complex into cells (EGFP positive rate); type: cell-based, mouse; conditions: Example 1; compound 250.0 mM; reaction solution 1 (550 mM sodium chloride, 1 mM HEPES, Cas9 protein/gRNA), 30 minutes
Excerpt: EGFP-SSA assay: an abbreviation of EGFP-single strand annealing assay. The reporter cassette shown in FIG. 1 is inserted in EGFP reporter cells. In the middle of the EGFP sequence of the cassette, MmDMD-Ex51 sequence is inserted. Since the presence of MmDMD-Ex51 sequence, by which EGFP ORF is divided, EGFP protein is not usually translated. However, when target sequence of MmDMD-Ex51 is cleaved by Cas9 protein/gRNA complex, the upstream region (EG part) and the downstream region (FP part) of EGFP ORF are annealed via a homology area into a single strand, with the result that a full-length EGFP ORF emerges to produce EGFP protein. Based on this principle, the ratio of the number of cells producing EGFP is checked by the EGFP-SSA assay. In this manner, the amount of Cas9 protein/gRNA complex delivered to cells can be predicted.
(§1) Cas9 protein (0.4 μg), tracrRNA (34.18 ng), MmDmd Ex51 crRNA (29.48 ng), a 1 M HEPES buffer (0.05 μL) and a 5 M aqueous sodium chloride solution (5.5 μL) were mixed and diluted with UltraPure DNase/RNase-Free Distilled Water up to a liquid volume of 37.5 μL so as to obtain final concentrations: 8 ng/μL Cas9 protein, 0.68 ng/μL tracrRNA, 0.59 ng/μL MmDmd Ex51 crRNA, 1 mM HEPES, 550 mM sodium chloride, and 250 mM compound. To this solution, a 1000 mM compound solution (12.5 μL) was added and the solution mixture was incubated at normal temperature for 15 minutes.
as §1, with “buffer (2.5” for “buffer (0.05”, “solution (4.85” for “solution (5.5”, “crRNA, 50” for “crRNA, 1”, “HEPES, 485” for “HEPES, 550”, “minutes. Note that, in the cases where the final concentrations of the compound are 0.69 mM, 25 mM, 100 mM, 125 mM, 160 mM, 200 mM and 500 mM, the compound stock solution was diluted with UltraPure DNase/RNase-Free Distilled Water up to concentrations of 2.76 mM, 100 mM, 400 mM, 500 mM, 640 mM, 800 mM and 2000 mM, respectively, and then, added. […]” for “minutes.”
Cas9 protein (2.0 μg), tracrRNA (170.9 ng), MmDmd Ex51 crRNA (147.4 ng), a 1 M HEPES buffer (12.5 μL), a 5 M aqueous sodium chloride solution (18.35 μL) and a 1 M aqueous GABA solution (62.5 μL) were mixed, diluted with UltraPure DNase/RNase-Free Distilled Water up to a liquid volume of 250 μL so as to obtain final concentrations: 8 ng/μL Cas9 protein, 0.68 ng/μL tracrRNA, 0.59 ng/μL MmDmd Ex51 crRNA, 50 mM HEPES, 250 mM GABA and 367 mM sodium chloride, and incubated at normal temperature for 15 minutes. Note that the addition amount of the 5 M aqueous sodium chloride solution was changed to 24.25 μL in the case of 485 mM sodium chloride and the addition amount was changed to 27.5 μL in the case of 550 mM sodium chloride, respectively.

[2] = test system: C57BL/6J mouse right lower limb gastrocnemius; assay: DNA mutation introduction efficiency using mRosa26 gRNA (T7E1 assay) after local administration; type: in vivo
Procedure: Cas9 protein (20 μg), mRosa26 gRNA (5 μg), 10×PBS (5 μL) and a 2.0 M aqueous 2′-deoxycytidine solution (6.25 μL) were mixed so as to obtain an aqueous solution having final concentrations of 400 ng/μL Cas9 protein, 100 ng/μL mRosa26 gRNA, 533 mM sodium chloride and 250 mM 2′-deoxycytidine. The concentration of the resultant solution was adjusted to be 533 mM with a 5 M aqueous sodium chloride solution, diluted with UltraPure DNase/RNase-Free Distilled Water up to a liquid volume of 50 μL and incubated at normal temperature for 15 minutes. […] The Cas9 protein herein was subjected to buffer replacement with 250 mM sodium chloride by use of Amicon® Ultra 2 mL Centrifugal Filters and then put in use.
Cas9 protein (40 μg), mRosa26 gRNA (10 μg), 10×PBS (5 μL), and a […] compound stock solution (25 μL) were mixed so as to obtain final concentrations: 800 ng/μL Cas9 protein, 200 ng/μL mRosa26 gRNA, 533 mM sodium chloride and 250 mM compound. […]
To the right lower limb gastrocnemius of each of 9 weeks-old male C57BL/6J mice (CLEA Japan, Inc), administration solution 1 or administration solution 2 and PBS (50 μL) were administered. […] The resultant PCR product was purified by QIAquick PCR purification kit (QIAGEN), treated with T7 Endonuclease I (NEB) and analyzed by Agilent 4200 TapeStation (Agilent). […]
As shown in FIG. 10 and FIG. 11, to find statistical significant difference between GABA and each conditions of the compounds, Dunnett's multiple comparison test using DNA mutation introduction efficiency, Indel (%), and exon skipping efficiency, was carried out. It was determined that if P value is less than 0.05, these is a statistically significant difference. […]
A solution for transduction containing 2′-deoxycytidine as a compound (A3) and sodium chloride as the (B) salt was prepared. […] Administration solution 1 was locally administered to the mouse right lower limb gastrocnemius and the activity to cleave a target gene was evaluated. […]

[3] = test system: EGFP reporter cells (C2C12 cells); assay: Number of HOECHST cells detected (cell viability) in the EGFP-SSA assay; conditions: Example 1, formula (2)
Procedure: To each of the solutions, a complex of gRNA and Cas9 protein was further dissolved. Mouse myoblasts (C2C12 cells) were contacted with each of the solutions in vitro, and target gene cleavage activity and cell viability were evaluated.

[4] = test system: EGFP reporter cells (C2C12 cells); assay: EGFP-SSA assay: uptake of Cas9 protein/gRNA complex into cells (EGFP positive rate); type: cell-based, mouse; conditions: Example 1; compound 100.0 mM; reaction solution 1 (550 mM sodium chloride, 1 mM HEPES, Cas9 protein/gRNA), 30 minutes

Row | SMILES | Compound activity: EGFP positive rate (%) [1] [%] | Genome editing efficiency (indel (%)) compared to 250 mM GABA ([2]; Example 6, administration solution 2: 25 mM or 250 mM 2′-deoxycytidine, 6-phospho-D-gluconic acid, N-carbamyl-L-aspartic acid or 2-deoxy-D-glucose-6-phosphate, 533 mM sodium chloride, 50 μL once, Dunnett's test, FIG. 10) | Relative ratio to GABA: Number of HOECHST cells ([3]; compound 250.0 mM vs 250 mM GABA positive control on the same plate) | Compound activity: EGFP positive rate (%) [4] [%] | Genome editing (mutation introduction efficiency, indel (%)) ([2]; Example 5, administration solution 1: 250 mM 2′-deoxycytidine, sodium chloride 163, 233, 333, 433 or 533 mM, mRosa26 gRNA/Cas9, 50 μL for 3 consecutive days, FIG. 9) | Relative ratio to GABA: Number of HOECHST cells ([3]; compound 100.0 mM vs 250 mM GABA positive control on the same plate)
1 | O=CC[C@@H](O)[C@H](O)[C@H](O)COP(=O)(O)O [Oxy-D-glucose-6-phosphate, 2-deoxy-D-glucose-6-phosphate] | 1.38 | statistically significant results compared to GABA | 1.06 | – | – | –
2 | Nc1ccn([C@H]2C[C@H](O)[C@@H](CO)O2)c(=O)n1 [2′-Deoxycytidine] | – | – | – | 1.10 | Genome editing was confirmed | 1.01
